{"source": "patent US20250108048A1", "about": "“STING AGONIST COMPOUNDS AND CONJUGATES” (SUTRO BIOPHARMA, INC., priority 2023, published 2025)", "type_in_all_cases": "cell-based, human", "key": {"[1]": {"tested_on": "TROP2 positive NCI-H292 Cells", "assay": "Cytokine release from cancer cells (MSD)", "details": "120 hours; for EC50: Homo sapiens", "procedure": "The cell supernatant was collected and IP-10 and IL-6 released in the cell culture medium was measured using Streptavidin single spot 96 well plates, compatible human antibody pairs, and calibrating solutions commercially available from MesoScale Discovery. Raw data generated by the Meso Scale Discovery (MSD®) SQ120 plate reader was imported into MSD Discovery Workbench software. Unknown sample values were interpolated from standard curves by the software and imported into Graphpad Prism. Each cytokine level was fitted with non-linear regression analysis, using log (agonist) vs. response, variable slope, 4-parameter fit equation in GraphPad Prism."}, "NCI-H441": {"tested_on": "NCI-H441", "assay": "NCI-H441/PBMC co-culture: cancer cell count", "details": "Table 9", "procedure": "(§1) For the co-culture assay, cancer cells were plated on transparent flat bottom polystyrene plates and allowed to attach overnight. On the next day, serially diluted (1:4) test articles were formulated at 3× starting concentration in complete RPMI media and added onto each well. Human PBMCs were thawed and resuspended in RPMI supplemented with 10% heat-inactivated fetal bovine serum from Hyclone, 1% Penicillin/Streptomycin and 2 mmol/L-glutamax. PBMCs were then added into the same well at a final ratio of PBMCs:cancer cells =30:1. Plates were incubated for 2 or 3 days at 37° C. with 5% CO2 in a cell culture incubator.\n(§2) On the day of sample collection, cell culture supernatants were collected and stored at −80° C. until cytokine release analyses were performed. […] After incubation on ice for 1 hour, cells were washed with FACS buffer and fixed with 50 ul/well of 2% PFA (paraformaldehyde) for 20 minutes. Cells were then washed with FACS buffer again and read on Cytek flow cytometer. FACS data analysis was done by Flowjo software to identifymonocytes, B cells, CD4+ T cells, CD8+ T cells, NK cells and Dendritic cells and their activation status. Data from Flowjo was exported and plotted using non-linear regression analysis, log (agonist/inhibitor) vs. response, variable slope, 4-parameter fit equation in GraphPad Prism. […]"}, "[2]": {"tested_on": "TROP2 negative NCI-H460 cells", "assay": "NCI-H460/PBMC co-culture: cancer cell count", "details": "Table 10", "procedure": "as §1, §2"}, "NCI-H292 cells": {"tested_on": "NCI-H292 cells", "assay": "Immunogenic cell death markers (HMGB1 release, surface calreticulin)", "details": "48 hours; for EC50: Homo sapiens", "procedure": "Immunogenic cell death elicited by the TROP2 ADC, iSAC, and exatecan were measured by cell surface translocate of calreticulin and release of HMGB1 in the cell culture supernatant. Briefly, TROP2 positive cell line NCI-H292 were seeded into a 96-well flat bottom plate 4 hours prior to the initialization of the assay. Test articles were formulated at a 2× starting concentration in cell culture medium, and samples were serial diluted (1:3) under sterile conditions and added onto the cells in duplicates. After incubation at 37° C. in a CO2 incubator for 48 hours, the cell supernatant was collected for measuring HMGB1 and the adherent cells were collected for calreticulin expression on the cell surface.\nHMGB1 released in the supernatant was assessed via sandwich ELISA using mouse anti-human HMGB1 clone 2F6 (Sigma-Aldrich) as the capture, polyclonal rabbit anti-human HMGB1 (Abcam) as secondary, and polyclonal goat anti-rabbit IgG HRP as the detection antibody. The HMGB1 concentrations in the cell culture medium were calculated based a standard curve built on commercially available recombinant human HMGB1 (R&D Systems).\nNCI-H292 cells were detached using Accutase (Innovative Cell Technologies) and viability was accessed using a 1:500 dilution of Zombie NIR viability dye. […] Surface calreticulin measures on the live cells were gathered using an Attune NXT Flow Cytometer (ThermoFisher Scientific) to obtain median fluorescence intensity values. All data were fitted with non-linear regression analysis, using log(agonist) vs. response, variable slope, 4 parameter fit equation using GraphPad Prism."}}, "note": "Where two headings read alike, the source gives them in different places."}
{"smiles": "CC[C@@]1(O)C(=O)OCc2c1cc1n(c2=O)Cc2c-1nc1cc(F)c(C)c3c1c2[C@@H](N)CC3", "note": "[Exatecan, reference compound]", "values": [{"measurement": "IL-6 Release Span", "setting": "[1]", "result": 1410, "unit": "pg/mL"}, {"measurement": "IP-10 Release Span", "setting": "[1]", "result": 203, "unit": "pg/mL"}, {"measurement": "EC50", "setting": "[1]; read-out: IL-6 Release EC50", "result": 14.7, "unit": "nM"}, {"measurement": "EC50", "setting": "[1]; read-out: IP-10 Release EC50", "result": 0.87, "unit": "nM"}, {"measurement": "IC50", "setting": "NCI-H441; Homo sapiens", "result": 0.44, "unit": "nM"}, {"measurement": "Cancer Cell Count Span (Cell Count)", "setting": "NCI-H441", "result": "5,749 Cell Count"}, {"measurement": "IC50", "setting": "[2]; Homo sapiens, NCI-H460/PBMC co-culture (TROP2 negative)", "result": 0.38, "unit": "nM"}, {"measurement": "Cancer Cell Count Span (Cell Count)", "setting": "[2]; NCI-H460/PBMC co-culture", "result": "23,530 Cell Count"}, {"measurement": "Calreticulin Span (MFI)", "setting": "NCI-H292 cells", "result": 783, "unit": "MFI"}, {"measurement": "HMGB-1 Release Span", "setting": "NCI-H292 cells", "result": 55, "unit": "ng/mL"}, {"measurement": "EC50", "setting": "NCI-H292 cells; sandwich ELISA, read-out: HMGB-1 Release EC50", "result": 2.08, "unit": "nM"}, {"measurement": "EC50", "setting": "NCI-H292 cells; surface calreticulin on live cells, read-out: Calreticulin EC50", "result": 0.19, "unit": "nM"}]}
